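Five compound concentrations were applied to cells in 96-well plates for 48 hours; endpoints were derived by simple linear interpolation of the resulting dose-response curve. Here, GI50 denotes the concentration required for 50% inhibition of growth.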 Activity calls are given as the source filed them. No stated cut-off is given here; in the data, active = GI50 up to about 1.1 µM and inactive = higher.

A word on the GI50: it is the concentration that inhibits growth by half.

Some test systems named below: UACC-62; SK-MEL-5; K562; BT-549; SNB-75; HT-29; SNB-19; UO-31; NCI-H522; IGROV-1; OVCAR-5; MDA-N; HOP-92; CAKI-1; LXFL 529; SNB-78; DMS-114; Hs-578T; KM-20L2.
What all share (assay): DTP human tumour cell line panel, 48 h

For `CC(=O)O[C@H]1CC[C@@]2(C)C(=CC[C@@H]3[C@@H]2CC[C@]2(C)C(=O)/C(=C\c4ccccc4)C[C@@H]32)C1`, the GI50 in the assay with UACC-62 was > 100 µM (inactive); in the assay on SK-MEL-5, 39.4 µM (inactive); with K562, 54.7 µM (inactive); in the assay on BT-549, > 100 µM (inactive); in the assay with SNB-75, > 100 µM (inactive); in the assay on HT-29, > 100 µM (inactive). Besides, the GI50 was > 100 µM (inactive) in the assay on SNB-19; > 100 µM (inactive) in the assay on UO-31; 51.8 µM (inactive) in the assay on NCI-H522; > 100 µM (inactive) in the assay with IGROV-1; > 100 µM (inactive) in the assay on OVCAR-5; > 100 µM (inactive) in the assay with MDA-N. Moreover, the GI50 in the assay with HOP-92 and with CAKI-1 was > 100 µM (inactive) in each case.

As to `NCc1ccc(O)c(O)c1`, the GI50 in the assay with UACC-62, in the assay with SK-MEL-5, in the assay with K562, in the assay with BT-549, with SNB-75 and in the assay with HT-29 was > 100 µM (inactive) each time. Further, the GI50 with SNB-19 was > 100 µM (inactive); with UO-31, > 100 µM (inactive); in the assay on IGROV-1 it was 60.1 µM (inactive); in the assay on OVCAR-5, > 100 µM (inactive); with MDA-N, > 100 µM (inactive); in the assay on HOP-92, > 100 µM (inactive). For the same molecule, the GI50 in the assay with CAKI-1 is > 100 µM (inactive).

For `Clc1ccccc1/C=C/c1cscn1`, the GI50 in the assay on UACC-62 is > 100 µM (inactive); in the assay on K562 it was > 100 µM (inactive); in the assay with SNB-75, > 100 µM (inactive); in the assay on HT-29, > 100 µM (inactive); in the assay on SNB-19, > 100 µM (inactive); in the assay with UO-31 it was 88.1 µM (inactive). Further, the GI50 in the assay with NCI-H522, in the assay on OVCAR-5, in the assay with LXFL 529, in the assay on SNB-78 and with DMS-114 was > 100 µM (inactive) each time.

In the case of `C=C[C@@H]1C(CO)=CCC2[C@H]1CCC1C(C)(C)C(=O)CC[C@]21C` (some centres not stated), the GI50 with UACC-62, with SK-MEL-5, in the assay on Hs-578T, in the assay on K562, in the assay with HT-29 and with SNB-19 was > 100 µM (inactive) each time. Also, the GI50 with UO-31, in the assay with NCI-H522, in the assay with IGROV-1, with OVCAR-5, in the assay on MDA-N and in the assay with HOP-92 was > 100 µM (inactive) each time. In addition, the GI50 in the assay on CAKI-1 is > 100 µM (inactive).

In the case of `O=C(c1ccccc1)C1C(c2ccccc2)N1S(=O)(=O)c1ccccc1` (configuration not stated), the GI50 with UACC-62, in the assay on SK-MEL-5, in the assay with Hs-578T, with K562, in the assay with BT-549 and in the assay with SNB-75 was > 100 µM (inactive) in each case. Also, the GI50 in the assay on HT-29, with UO-31, with NCI-H522, with IGROV-1, in the assay on OVCAR-5 and with MDA-N was > 100 µM (inactive) in each case. For the same molecule, the GI50 in the assay with CAKI-1 was > 100 µM (inactive).

On to `Brc1ccccc1-c1ncc(-c2ccccc2)o1`, for which the GI50 is 32.2 µM (inactive) with UACC-62; 18.1 µM (inactive) with SK-MEL-5; 10.3 µM (inactive) in the assay on Hs-578T; 21.1 µM (inactive) in the assay with K562; 29.2 µM (inactive) in the assay on BT-549; 20.6 µM (inactive) with SNB-75. Also, the GI50 in the assay with HT-29 was 29.9 µM (inactive); in the assay with SNB-19, > 100 µM (inactive); in the assay with UO-31, 43.7 µM (inactive); in the assay on NCI-H522, 22.6 µM (inactive); with IGROV-1 it was 19.2 µM (inactive); in the assay with OVCAR-5 it was 66.5 µM (inactive). Besides, the GI50 in the assay on MDA-N was 31 µM (inactive); in the assay with HOP-92 it was 17.8 µM (inactive); in the assay on CAKI-1 it was 32.1 µM (inactive).

On to `Nc1nnc2ccc(Cl)cc2[n+]1[O-]`, for which the GI50 with UACC-62 was 49 µM (inactive); with SK-MEL-5, 31 µM (inactive); in the assay on Hs-578T, 41.7 µM (inactive); in the assay with K562, 21.8 µM (inactive); with BT-549, > 100 µM (inactive); in the assay with SNB-75, > 100 µM (inactive). The GI50 is 42.4 µM (inactive) with HT-29; > 100 µM (inactive) in the assay with SNB-19; > 100 µM (inactive) in the assay with UO-31; 38 µM (inactive) with NCI-H522; 31.8 µM (inactive) in the assay on IGROV-1; > 100 µM (inactive) in the assay on OVCAR-5. The GI50 in the assay with MDA-N was 37.6 µM (inactive); in the assay on CAKI-1, > 100 µM (inactive).

On to `Cc1ccc(NC(=O)S(N)(c2ccc(C)cc2)[N+](=O)[O-])cc1` (configuration not stated), for which the GI50 was > 100 µM (inactive) in the assay on UACC-62; > 100 µM (inactive) with SK-MEL-5; > 100 µM (inactive) with Hs-578T; 8.87 µM (inactive) with K562; > 100 µM (inactive) with BT-549; > 100 µM (inactive) with SNB-75. The GI50 in the assay on HT-29 is > 100 µM (inactive); in the assay with SNB-19, > 100 µM (inactive); in the assay with UO-31 it was 75 µM (inactive); with IGROV-1, > 100 µM (inactive); with OVCAR-5, > 100 µM (inactive); in the assay with MDA-N, > 100 µM (inactive). In addition, the GI50 in the assay with HOP-92 and with CAKI-1 was > 100 µM (inactive) throughout.

`CCOC(=O)C1Cc2c(cc3c4c(cccc24)N(C(C)=O)C3)N(C)C1` (configuration not stated): the GI50 is 13.4 µM (inactive) with UACC-62; > 100 µM (inactive) with SK-MEL-5; 2.49 µM (inactive) with Hs-578T; 4.39 µM (inactive) in the assay on K562; 24.2 µM (inactive) in the assay on SNB-75; > 100 µM (inactive) with HT-29. The GI50 in the assay on SNB-19 is > 100 µM (inactive); with UO-31, 1.07 µM (active); with NCI-H522 it was 0.0681 µM (active); with IGROV-1, 5.83 µM (inactive); in the assay on OVCAR-5, 17.7 µM (inactive); with MDA-N it was 1.67 µM (inactive). Besides, the values for the GI50 in the assay on HOP-92 and in the assay with CAKI-1 were 1.65 µM (inactive) and 7.71 µM (inactive), respectively.

For the molecule `O=C(O)C1CCC(=O)N1C(=O)COc1cc(Cl)c(Cl)cc1Cl` (configuration not stated), the GI50 in the assay on UACC-62 was > 100 µM (inactive); with SK-MEL-5 it was > 100 µM (inactive); in the assay on KM-20L2 it was > 100 µM (inactive); in the assay with SNB-75 it was 40.6 µM (inactive); in the assay on HT-29 it was > 100 µM (inactive); in the assay on SNB-19 it was > 100 µM (inactive). For the same molecule, the GI50 in the assay with UO-31 is > 100 µM (inactive); in the assay on NCI-H522 it was > 100 µM (inactive); in the assay with IGROV-1 it was > 100 µM (inactive); in the assay on OVCAR-5 it was > 100 µM (inactive); with HOP-92, 82 µM (inactive); in the assay with LXFL 529, > 100 µM (inactive). Moreover, the GI50 in the assay on SNB-78, with CAKI-1 and with DMS-114 was > 100 µM (inactive) each time.

Consider `N#Cc1ccccc1NC(=O)C(=O)C(C(=O)c1ccccc1F)C1OC(=O)c2ccccc21` (configuration not stated), for which the GI50 in the assay on UACC-62 is 41 µM (inactive); with SK-MEL-5 it was 89.3 µM (inactive); in the assay on K562 it was 36.7 µM (inactive); with KM-20L2, 76.7 µM (inactive); in the assay with SNB-75, 38.4 µM (inactive); with HT-29 it was 40 µM (inactive). Besides, the GI50 is 32.4 µM (inactive) in the assay on SNB-19; 43.8 µM (inactive) with UO-31; 21 µM (inactive) with NCI-H522; 86.1 µM (inactive) in the assay on IGROV-1; 65.6 µM (inactive) in the assay on OVCAR-5; > 100 µM (inactive) in the assay with HOP-92. Also, the GI50 in the assay with LXFL 529 is 31 µM (inactive); in the assay with SNB-78, 25.8 µM (inactive); in the assay on CAKI-1 it was 64.4 µM (inactive); in the assay with DMS-114, 35.5 µM (inactive).

On to `Cn1c2n/c(=N\c3ccc(Cl)cc3)[n+]3ccc4ccccc4c3c-2c([O-])n1-c1ccccc1`, for which the GI50 with UACC-62, in the assay with SK-MEL-5, in the assay with Hs-578T, with K562, with BT-549 and in the assay with SNB-75 was > 100 µM (inactive) each time. Also, the GI50 in the assay on HT-29, with SNB-19, with UO-31, in the assay on NCI-H522, in the assay with IGROV-1 and in the assay on OVCAR-5 was > 100 µM (inactive) in each case. The figures for the GI50 with MDA-N and in the assay on CAKI-1 were > 100 µM (inactive) and 46.3 µM (inactive), respectively.

As to `Cc1oc2c(c1C)S(=O)(=O)C(C#N)=CN2`, the GI50 was > 100 µM (inactive) with UACC-62; > 100 µM (inactive) in the assay with SK-MEL-5; > 100 µM (inactive) with Hs-578T; > 100 µM (inactive) with K562; > 100 µM (inactive) in the assay on BT-549; 65.3 µM (inactive) with SNB-75. In addition, the GI50 in the assay with HT-29, with SNB-19, in the assay with UO-31, in the assay on NCI-H522, in the assay with IGROV-1 and in the assay with OVCAR-5 was > 100 µM (inactive) in each case. Besides, the GI50 with MDA-N, with HOP-92 and with CAKI-1 was > 100 µM (inactive) throughout.

As to `O=c1c(-c2ccccc2)c(SCCN2CCCCCC2)n(-c2ccccc2)c(=S)n1-c1ccccc1`, the GI50 in the assay with UACC-62 is 48.9 µM (inactive); with SK-MEL-5, 23.2 µM (inactive); with Hs-578T, 39.8 µM (inactive); with K562, 19.6 µM (inactive); with BT-549, > 100 µM (inactive); with SNB-75, > 100 µM (inactive). In addition, the GI50 was 20.3 µM (inactive) in the assay with NCI-H522; 45.8 µM (inactive) in the assay on IGROV-1; 21.1 µM (inactive) in the assay with OVCAR-5; 15.2 µM (inactive) in the assay with HOP-92; 22.9 µM (inactive) in the assay on CAKI-1.
